Measured values reported in article PMC11237012, “Synthesis and preliminary evaluation of novel PET probes for GSK-3 imaging” (Scientific Reports, 2024).

Experiment: Ex vivo biodistribution
Type: in vivo, wild-type FVB/NJ mice
Protocol: To further understand the pharmacokinetics of [^18F]2, ex vivo biodistribution was performed with different groups of mice with and without co-administration of 2. Animals were sacrificed at 5 min, 10 min and 120 min post-injection of [^18F]2. Vital organs and tissues were collected and uptake of the [^18F]2 was measured as SUV after counting the radioactivity in each harvested tissue. […] Additionally, observed higher uptake of [^18F]2 in pancreas could potentially be extended to beta cell mass imaging as a separate study. […] Therefore, it would be valuable to evaluate PET [^18F]2 in pathological conditions to finally evaluate its selectivity, binding affinity, and retention in vivo in the presence and absence of self-blocking as a future study.
Uptake of PET probe [^18F]2 (1.40 ± 0.61 MBq) was assessed with and without co-administration of 2 in 10–13-week-old wild-type FVB/NJ mice (The Jackson Laboratory, Bar Harbor, ME) after tail vein injection followed by PET imaging at 5 min, 10 min, 15 min, 20 min, 25 min, 30 min, 40 min, 50 min, 60 min and 120 min post injection. Additionally, ex vivo biodistribution was performed at 5 min, 10 min and 120 min post tail vein injection. To prepare [^18F]2 formulation for injection, 0.76 ± 0.48 µg (2.01 ± 1.27 nmol) of [^18F]2 was formulated in 10% ethanol/ 90% isotonic saline. For the blocking experiment, 20.21 ± 1.63 µg (53.75 ± 4.33 nmol) of 2 in DMSO was added to [^18F]2 (Am of 87.27 ± 77.26 (n = 13) GBq/µmole, having 0.46 ± 0.31 µg or 1.23 ± 0.83 nmol of nonradioactive 2 in it) in the final formulation volume of ~ 100 µL. This study had 12 wild type FVB/NJ male mice with body weight 31.8 ± 2.7 g and 10 wild type FVB/NJ female mice with body weight 27.0 ± 3.6 g at the time of imaging. All the animals were anesthetized for tail vein injection and PET imaging using an induction dose of 3% isoflurane and a maintenance dose of 2–3% isoflurane, which was administered via isoflurane vaporizer. All anesthetized animals were kept warm during imaging using a heat supported imaging chamber. For ex vivo biodistribution studies, animals were sacrificed at 5 min, 10 min and 120 min post-injection by cervical dislocation and tissues were harvested for gamma counting. For PET imaging studies, each animal underwent a 60 min dynamic PET scan (Framing Sequence: 1 × 10 s, 4 × 15 s, 8 × 30 s, 5 × 60 s, 4 × 300 s, 3 × 600 s) immediately post injection followed by 10 min static PET scan at 120 min post-injection on small animal micro-PET/X-ray system, Genesys 4 (Sofie BioSystems, Dulles, VA, USA). The PET images were reconstructed using Genesys 4 imaging software installed on the imaging system. The obtained PET images were visualized and analyzed using image analysis software, “Amide's a medical image data examiner-AMIDE”[53]. PET images were normalized to the standardized uptake value (SUV) where; SUV=ConcentrationofdoseintissueμCi/g×Weightoftheanimal(g)/Injecteddose(μCi).

SUV, Average ± SD (Adipose, 5 min post-injection, [^18F]2 + 20 µg of 2): 0.33 ± 0.05 | SUV, Average ± SD (Adipose, 5 min post-injection, [^18F]2 alone): 0.29 ± 0.09 | SUV, Average ± SD (Adipose, 10 min post-injection, [^18F]2 + 20 µg of 2): 0.38 ± 0.05 | SUV, Average ± SD (Adipose, 10 min post-injection, [^18F]2 alone): 0.24 ± 0.07 | SUV, Average ± SD (Adipose, 120 min post-injection, [^18F]2 + 20 µg of 2): 0.25 ± 0.05 | SUV, Average ± SD (Adipose, 120 min post-injection, [^18F]2 alone): 0.14 ± 0.04 | SUV, Average ± SD (Bladder, 5 min post-injection, [^18F]2 + 20 µg of 2): 0.71 ± 0.09 | SUV, Average ± SD (Bladder, 5 min post-injection, [^18F]2 alone): 0.40 ± 0.12 | SUV, Average ± SD (Bladder, 10 min post-injection, [^18F]2 + 20 µg of 2): 0.84 ± 0.13 | SUV, Average ± SD (Bladder, 10 min post-injection, [^18F]2 alone): 0.48 ± 0.08 | SUV, Average ± SD (Bladder, 120 min post-injection, [^18F]2 + 20 µg of 2): 0.73 ± 0.54 | SUV, Average ± SD (Bladder, 120 min post-injection, [^18F]2 alone): 1.58 ± 1.90 | SUV, Average ± SD (Blood, 5 min post-injection, [^18F]2 + 20 µg of 2): 0.93 ± 0.14 | SUV, Average ± SD (Blood, 5 min post-injection, [^18F]2 alone): 0.38 ± 0.18 | SUV, Average ± SD (Blood, 10 min post-injection, [^18F]2 + 20 µg of 2): 0.79 ± 0.12 | SUV, Average ± SD (Blood, 10 min post-injection, [^18F]2 alone): 0.34 ± 0.02 | SUV, Average ± SD (Blood, 120 min post-injection, [^18F]2 + 20 µg of 2): 0.43 ± 0.07 | SUV, Average ± SD (Blood, 120 min post-injection, [^18F]2 alone): 0.15 ± 0.07 | SUV, Average ± SD (Bone, 5 min post-injection, [^18F]2 + 20 µg of 2): 0.48 ± 0.02 | SUV, Average ± SD (Bone, 5 min post-injection, [^18F]2 alone): 0.30 ± 0.14 | SUV, Average ± SD (Bone, 10 min post-injection, [^18F]2 + 20 µg of 2): 0.50 ± 0.03 | SUV, Average ± SD (Bone, 10 min post-injection, [^18F]2 alone): 0.29 ± 0.04 | SUV, Average ± SD (Bone, 120 min post-injection, [^18F]2 + 20 µg of 2): 1.22 ± 0.31 | SUV, Average ± SD (Bone, 120 min post-injection, [^18F]2 alone): 1.08 ± 0.33 | SUV, Average ± SD (CN (caudate nucleus), 5 min post-injection, [^18F]2 + 20 µg of 2): 0.65 ± 0.04 | SUV, Average ± SD (CN (caudate nucleus), 5 min post-injection, [^18F]2 alone): 0.87 ± 0.48 | SUV, Average ± SD (CN (caudate nucleus), 10 min post-injection, [^18F]2 + 20 µg of 2): 0.45 ± 0.05 | SUV, Average ± SD (CN (caudate nucleus), 10 min post-injection, [^18F]2 alone): 0.34 ± 0.07 | SUV, Average ± SD (CN (caudate nucleus), 120 min post-injection, [^18F]2 + 20 µg of 2): 0.19 ± 0.03 | SUV, Average ± SD (CN (caudate nucleus), 120 min post-injection, [^18F]2 alone): 0.06 ± 0.02 | SUV, Average ± SD (Heart, 5 min post-injection, [^18F]2 + 20 µg of 2): 1.38 ± 0.11 | SUV, Average ± SD (Heart, 5 min post-injection, [^18F]2 alone): 0.69 ± 0.36 | SUV, Average ± SD (Heart, 10 min post-injection, [^18F]2 + 20 µg of 2): 1.14 ± 0.16 | SUV, Average ± SD (Heart, 10 min post-injection, [^18F]2 alone): 0.45 ± 0.02 | SUV, Average ± SD (Heart, 120 min post-injection, [^18F]2 + 20 µg of 2): 0.48 ± 0.12 | SUV, Average ± SD (Heart, 120 min post-injection, [^18F]2 alone): 0.16 ± 0.08 | SUV, Average ± SD (Left kidney, 5 min post-injection, [^18F]2 + 20 µg of 2): 2.47 ± 0.30 | SUV, Average ± SD (Left kidney, 5 min post-injection, [^18F]2 alone): 1.37 ± 0.69 | SUV, Average ± SD (Left kidney, 10 min post-injection, [^18F]2 + 20 µg of 2): 2.27 ± 0.32 | SUV, Average ± SD (Left kidney, 10 min post-injection, [^18F]2 alone): 1.01 ± 0.16 | SUV, Average ± SD (Left kidney, 120 min post-injection, [^18F]2 + 20 µg of 2): 2.18 ± 0.51 | SUV, Average ± SD (Left kidney, 120 min post-injection, [^18F]2 alone): 0.54 ± 0.06 | SUV, Average ± SD (Lung, 5 min post-injection, [^18F]2 + 20 µg of 2): 1.17 ± 0.15 | SUV, Average ± SD (Lung, 5 min post-injection, [^18F]2 alone): 0.65 ± 0.35 | SUV, Average ± SD (Lung, 10 min post-injection, [^18F]2 + 20 µg of 2): 1.08 ± 0.15 | SUV, Average ± SD (Lung, 10 min post-injection, [^18F]2 alone): 0.48 ± 0.03 | SUV, Average ± SD (Lung, 120 min post-injection, [^18F]2 + 20 µg of 2): 0.52 ± 0.09 | SUV, Average ± SD (Lung, 120 min post-injection, [^18F]2 alone): 0.18 ± 0.07 | SUV, Average ± SD (Muscle, 5 min post-injection, [^18F]2 + 20 µg of 2): 0.90 ± 0.17 | SUV, Average ± SD (Muscle, 5 min post-injection, [^18F]2 alone): 0.47 ± 0.23 | SUV, Average ± SD (Muscle, 10 min post-injection, [^18F]2 + 20 µg of 2): 0.72 ± 0.09 | SUV, Average ± SD (Muscle, 10 min post-injection, [^18F]2 alone): 0.43 ± 0.03 | SUV, Average ± SD (Muscle, 120 min post-injection, [^18F]2 + 20 µg of 2): 0.32 ± 0.06 | SUV, Average ± SD (Muscle, 120 min post-injection, [^18F]2 alone): 0.11 ± 0.04 | SUV, Average ± SD (Pancreas, 5 min post-injection, [^18F]2 + 20 µg of 2): 1.83 ± 0.16 | SUV, Average ± SD (Pancreas, 5 min post-injection, [^18F]2 alone): 1.27 ± 0.56 | SUV, Average ± SD (Pancreas, 10 min post-injection, [^18F]2 + 20 µg of 2): 1.53 ± 0.15 | SUV, Average ± SD (Pancreas, 10 min post-injection, [^18F]2 alone): 0.85 ± 0.23 | SUV, Average ± SD (Pancreas, 120 min post-injection, [^18F]2 + 20 µg of 2): 0.57 ± 0.15 | SUV, Average ± SD (Pancreas, 120 min post-injection, [^18F]2 alone): 0.22 ± 0.09 | SUV, Average ± SD (Right kidney, 5 min post-injection, [^18F]2 + 20 µg of 2): 2.46 ± 0.18 | SUV, Average ± SD (Right kidney, 5 min post-injection, [^18F]2 alone): 1.34 ± 0.69 | SUV, Average ± SD (Right kidney, 10 min post-injection, [^18F]2 + 20 µg of 2): 2.30 ± 0.35 | SUV, Average ± SD (Right kidney, 10 min post-injection, [^18F]2 alone): 0.97 ± 0.12 | SUV, Average ± SD (Right kidney, 120 min post-injection, [^18F]2 + 20 µg of 2): 2.30 ± 0.81 | SUV, Average ± SD (Right kidney, 120 min post-injection, [^18F]2 alone): 0.48 ± 0.15 | SUV, Average ± SD (Skin, 5 min post-injection, [^18F]2 + 20 µg of 2): 0.66 ± 0.16 | SUV, Average ± SD (Skin, 5 min post-injection, [^18F]2 alone): 0.46 ± 0.17 | SUV, Average ± SD (Skin, 10 min post-injection, [^18F]2 + 20 µg of 2): 0.66 ± 0.10 | SUV, Average ± SD (Skin, 10 min post-injection, [^18F]2 alone): 0.52 ± 0.16 | SUV, Average ± SD (Skin, 120 min post-injection, [^18F]2 + 20 µg of 2): 0.71 ± 0.66 | SUV, Average ± SD (Skin, 120 min post-injection, [^18F]2 alone): 0.10 ± 0.04 | SUV, Average ± SD (Spleen, 5 min post-injection, [^18F]2 + 20 µg of 2): 1.00 ± 0.05 | SUV, Average ± SD (Spleen, 5 min post-injection, [^18F]2 alone): 0.74 ± 0.27 | SUV, Average ± SD (Spleen, 10 min post-injection, [^18F]2 + 20 µg of 2): 1.14 ± 0.50 | SUV, Average ± SD (Spleen, 10 min post-injection, [^18F]2 alone): 0.55 ± 0.20 | SUV, Average ± SD (Spleen, 120 min post-injection, [^18F]2 + 20 µg of 2): 0.44 ± 0.11 | SUV, Average ± SD (Spleen, 120 min post-injection, [^18F]2 alone): 0.15 ± 0.07 | SUV, Average ± SD (Stomach, 5 min post-injection, [^18F]2 + 20 µg of 2): 0.86 ± 0.32 | SUV, Average ± SD (Stomach, 5 min post-injection, [^18F]2 alone): 0.80 ± 0.24 | SUV, Average ± SD (Stomach, 10 min post-injection, [^18F]2 + 20 µg of 2): 0.97 ± 0.63 | SUV, Average ± SD (Stomach, 10 min post-injection, [^18F]2 alone): 0.53 ± 0.09 | SUV, Average ± SD (Stomach, 120 min post-injection, [^18F]2 + 20 µg of 2): 1.28 ± 1.08 | SUV, Average ± SD (Stomach, 120 min post-injection, [^18F]2 alone): 0.68 ± 0.41 | SUV, Average ± SD (Urine, 5 min post-injection, [^18F]2 + 20 µg of 2): 0.20 ± 0.29 | SUV, Average ± SD (Urine, 5 min post-injection, [^18F]2 alone): 0.10 ± 0.10 | SUV, Average ± SD (Urine, 10 min post-injection, [^18F]2 + 20 µg of 2): 0.85 ± 0.79 | SUV, Average ± SD (Urine, 10 min post-injection, [^18F]2 alone): 1.78 ± 1.21 | SUV, Average ± SD (Urine, 120 min post-injection, [^18F]2 + 20 µg of 2): 3.20 ± 2.32 | SUV, Average ± SD (Urine, 120 min post-injection, [^18F]2 alone): 20.55 ± 8.76 | SUV, Average ± SD (liver, 5 min post-injection, [^18F]2 + 20 µg of 2): 8.37 ± 0.36 | SUV, Average ± SD (liver, 5 min post-injection, [^18F]2 alone): 11.85 ± 0.33 | SUV, Average ± SD (liver, 10 min post-injection, [^18F]2 + 20 µg of 2): 7.85 ± 0.41 | SUV, Average ± SD (liver, 10 min post-injection, [^18F]2 alone): 14.43 ± 1.48 | SUV, Average ± SD (liver, 120 min post-injection, [^18F]2 + 20 µg of 2): 4.00 ± 0.22 | SUV, Average ± SD (liver, 120 min post-injection, [^18F]2 alone): 3.08 ± 1.44
SMILES: O=C(Nc1cnccc1-c1ccc([18F])cc1)c1ccnc(NC(=O)C2CC2)c1 [[^18F]2]
